Measured values reported in ChEMBL document CHEMBL5620394, “Synthesis of new antiproliferative 1,3,4-substituted-pyrrolo[3,2-c]quinoline derivatives, biological and in silico insights” (Eur J Med Chem, 2023).
The source made the active and inactive calls. No cut-off for these calls is given here.

Key:
IGROV-1 = test: Antiproliferative activity against human IGROV-1 cells assessed as cell growth at 10 uM incubated for 48 hrs by sulforhodamine B assay relative to control; assay type: functional; settings: read-out: Activity
NCI-H522 = test: Antiproliferative activity against human NCI-H522 cells assessed as cell growth at 10 uM incubated for 48 hrs by sulforhodamine B assay relative to control; assay type: functional; settings: read-out: Activity
KM12 = test: Antiproliferative activity against human KM12 cells assessed as cell growth at 10 uM incubated for 48 hrs by sulforhodamine B assay relative to control; assay type: functional; settings: read-out: Activity
SK-OV-3 = test: Antiproliferative activity against human SK-OV-3 cells assessed as cell growth at 10 uM incubated for 48 hrs by sulforhodamine B assay relative to control; assay type: functional; settings: read-out: Activity
MDA-MB-231 [1] = test: Growth inhibition of human MDA-MB-231 cells at 50 uM incubated for 24 hrs by cell counter analysis relative to control; assay type: functional; settings: read-out: GI
MDA-MB-231 [2] = test: Growth inhibition of human MDA-MB-231 cells at 10 uM incubated for 72 hrs by cell counter analysis relative to control; assay type: functional; settings: read-out: GI
MCF7 [3] = test: Induction of cell cycle arrest in human MCF7 cells assessed as decrease in accumulation of cells at G0/G1 phase incubated for 72 hrs by propidium iodide staining based flow cytometry analysis; assay type: functional
MCF7 [4] = test: Induction of cell cycle arrest in human MCF7 cells assessed as increase in accumulation of cells at G2/M phase at 10 to 25 uM incubated for 72 hrs by propidium iodide staining based flow cytometry analysis; assay type: functional; settings: dose 10-25 µM
MCF7 [5] = test: Induction of cell cycle arrest in human MCF7 cells assessed as increase in accumulation of cells at S phase at 25 uM incubated for 72 hrs by propidium iodide staining based flow cytometry analysis; assay type: functional
MCF7 [6] = test: Induction of cell cycle arrest in human MCF7 cells assessed as increase in accumulation of cells at G2/M phase at 5 uM incubated for 72 hrs by propidium iodide staining based flow cytometry analysis; assay type: functional
MCF7 [7] = test: Growth inhibition of human MCF7 cells at 10 uM incubated for 72 hrs by cell counter analysis relative to control; assay type: functional; settings: read-out: GI
MDA-MB-468 = test: Antiproliferative activity against human MDA-MB-468 cells assessed as cell growth at 10 uM incubated for 48 hrs by sulforhodamine B assay relative to control; assay type: functional; settings: read-out: Activity
A549 = test: Antiproliferative activity against human A549 cells assessed as cell growth at 10 uM incubated for 48 hrs by sulforhodamine B assay relative to control; assay type: functional; settings: read-out: Activity
[8] = Growth inhibition of human MCF-10A cells at 50 uM incubated for 24 to 48 hrs by cell counter analysis relative to control; assay type: toxicity, cell-based; settings: time 24-48 hrs, read-out: GI
MCF7 [9] = test: Growth inhibition of human MCF7 cells at 10 uM incubated for 24 hrs by cell counter analysis relative to control; assay type: functional; settings: read-out: GI
MDA-MB-435 = test: Antiproliferative activity against human MDA-MB-435 cells assessed as cell growth at 10 uM incubated for 48 hrs by sulforhodamine B assay relative to control; assay type: functional; settings: read-out: Activity
MDA-MB-231 [10] = test: Growth inhibition of human MDA-MB-231 cells at 10 uM incubated for 24 hrs by cell counter analysis relative to control; assay type: functional; settings: read-out: GI
MCF7 [11] = test: Induction of apoptosis in human MCF7 cells assessed as increase in ROS production at 5 to 25 uM by H2DCFDA staining based flow cytometric analysis; assay type: functional, cell-based; settings: dose 5-25 µM
RPMI-8226 = test: Antiproliferative activity against human RPMI-8226 cells assessed as cell growth at 10 uM incubated for 48 hrs by sulforhodamine B assay relative to control; assay type: functional; settings: read-out: Activity
[12] = Growth inhibition of human MCF-10A cells at 25 uM incubated for 24 to 48 hrs by cell counter analysis relative to control; assay type: toxicity, cell-based; settings: time 24-48 hrs, read-out: GI
MCF7 [13] = test: Growth inhibition of human MCF7 cells at 50 uM incubated for 72 hrs by cell counter analysis relative to control; assay type: functional; settings: read-out: GI
UACC-257 = test: Antiproliferative activity against human UACC-257 cells assessed as cell growth at 10 uM incubated for 48 hrs by sulforhodamine B assay relative to control; assay type: functional; settings: read-out: Activity
EKVX = test: Antiproliferative activity against human EKVX cells assessed as cell growth at 10 uM incubated for 48 hrs by sulforhodamine B assay relative to control; assay type: functional; settings: read-out: Activity
MCF7 [14] = test: Growth inhibition of human MCF7 cells at 25 uM incubated for 24 hrs by cell counter analysis relative to control; assay type: functional; settings: read-out: GI
MCF7 [15] = test: Growth inhibition of human MCF7 cells at 50 uM incubated for 24 hrs by cell counter analysis relative to control; assay type: functional; settings: read-out: GI
SNB-75 = test: Antiproliferative activity against human SNB-75 cells assessed as cell growth at 10 uM incubated for 48 hrs by sulforhodamine B assay relative to control; assay type: functional; settings: read-out: Activity
NCI-H226 = test: Antiproliferative activity against human NCI-H226 cells assessed as cell growth at 10 uM incubated for 48 hrs by sulforhodamine B assay relative to control; assay type: functional; settings: read-out: Activity
CAKI-1 = test: Antiproliferative activity against human CAKI-1 cells assessed as cell growth at 10 uM incubated for 48 hrs by sulforhodamine B assay relative to control; assay type: functional; settings: read-out: Activity
SR = test: Antiproliferative activity against human SR cells assessed as cell growth at 10 uM incubated for 48 hrs by sulforhodamine B assay relative to control; assay type: functional; settings: read-out: Activity
MOLT-4 = test: Antiproliferative activity against human MOLT-4 cells assessed as cell growth at 10 uM incubated for 48 hrs by sulforhodamine B assay relative to control; assay type: functional; settings: read-out: Activity
ACHN = test: Antiproliferative activity against human ACHN cells assessed as cell growth at 10 uM incubated for 48 hrs by sulforhodamine B assay relative to control; assay type: functional; settings: read-out: Activity
MDA-MB-231 [16] = test: Growth inhibition of human MDA-MB-231 cells at 25 uM incubated for 24 hrs by cell counter analysis relative to control; assay type: functional; settings: read-out: GI
MCF7 [17] = test: Growth inhibition of human MCF7 cells at 25 uM incubated for 72 hrs by cell counter analysis relative to control; assay type: functional; settings: read-out: GI
MDA-MB-231 [18] = test: Growth inhibition of human MDA-MB-231 cells at 25 uM incubated for 72 hrs by cell counter analysis relative to control; assay type: functional; settings: read-out: GI
K562 = test: Antiproliferative activity against human K562 cells assessed as cell growth at 10 uM incubated for 48 hrs by sulforhodamine B assay relative to control; assay type: functional; settings: read-out: Activity
[19] = Growth inhibition of human MCF-10A cells at 10 uM incubated for 24 hrs by cell counter analysis relative to control; assay type: toxicity, cell-based; settings: read-out: GI
UO-31 = test: Antiproliferative activity against human UO-31 cells assessed as cell growth at 10 uM incubated for 48 hrs by sulforhodamine B assay relative to control; assay type: functional; settings: read-out: Activity
HOP-62 = test: Antiproliferative activity against human HOP-62 cells assessed as cell growth at 10 uM incubated for 48 hrs by sulforhodamine B assay relative to control; assay type: functional; settings: read-out: Activity
MCF7 [20] = test: Induction of cell cycle arrest in human MCF7 cells assessed as increase in accumulation of cells at sub-G1 phase at 10 uM incubated for 72 hrs by propidium iodide staining based flow cytometry analysis; assay type: functional
MCF7 [21] = test: Antiproliferative activity against human MCF7 cells assessed as cell growth at 10 uM incubated for 48 hrs by sulforhodamine B assay relative to control; assay type: functional; settings: read-out: Activity
LOX IMVI = test: Antiproliferative activity against human LOX IMVI cells assessed as cell growth at 10 uM incubated for 48 hrs by sulforhodamine B assay relative to control; assay type: functional; settings: read-out: Activity
HCT-15 = test: Antiproliferative activity against human HCT-15 cells assessed as cell growth at 10 uM incubated for 48 hrs by sulforhodamine B assay relative to control; assay type: functional; settings: read-out: Activity
[22] = Growth inhibition of human MCF-10A cells at 10 uM incubated for 72 hrs by cell counter analysis relative to control; assay type: toxicity, cell-based; settings: read-out: GI
MDA-MB-231 [23] = test: Antiproliferative activity against human MDA-MB-231 cells assessed as cell growth at 10 uM incubated for 48 hrs by sulforhodamine B assay relative to control; assay type: functional; settings: read-out: Activity
MDA-MB-231 [24] = test: Growth inhibition of human MDA-MB-231 cells at 50 uM incubated for 72 hrs by cell counter analysis relative to control; assay type: functional; settings: read-out: GI
HCT-116 = test: Antiproliferative activity against human HCT-116 cells assessed as cell growth at 10 uM incubated for 48 hrs by sulforhodamine B assay relative to control; assay type: functional; settings: read-out: Activity
MCF7 [25] = test: Inhibition of colony formation in human MCF7 cells incubated for 72 hrs by crystal violet staining assay; assay type: functional, cell-based
PC-3 = test: Antiproliferative activity against human PC-3 cells assessed as cell growth at 10 uM incubated for 48 hrs by sulforhodamine B assay relative to control; assay type: functional; settings: read-out: Activity
MCF7 [26] = test: Induction of cell cycle arrest in human MCF7 cells assessed as increase in accumulation of cells at sub-G1 phase at 5 uM incubated for 72 hrs by propidium iodide staining based flow cytometry analysis; assay type: functional
T47D = test: Antiproliferative activity against human T47D cells assessed as cell growth at 10 uM incubated for 48 hrs by sulforhodamine B assay relative to control; assay type: functional; settings: read-out: Activity
SF-295 = test: Antiproliferative activity against human SF-295 cells assessed as cell growth at 10 uM incubated for 48 hrs by sulforhodamine B assay relative to control; assay type: functional; settings: read-out: Activity

With `CC(=O)c1c(C)[nH]c2c1c(-c1ccc3c(c1)OCO3)nc1ccccc12` the growth at 10 µM (IGROV-1) was 60.1%, the growth at 10 µM (NCI-H522) was 101% and the growth at 10 µM (KM12) was 74.6%. The growth at 10 µM (SK-OV-3) was 88.8%, the inhibition of growth at 50 µM (MDA-MB-231 [1]) was 60% and the inhibition of growth at 10 µM (MDA-MB-231 [2]) was 28%. The Activity (MCF7 [3]) was “Dose-Dependent Effect”, the Activity (MCF7 [4]) was “Active” and the Activity (MCF7 [5]) was “Active”. For the same molecule, the Activity (MCF7 [6]) was “inactive”, the inhibition of growth at 10 µM (MCF7 [7]) was 25% and the growth at 10 µM (MDA-MB-468) was 59.5%. For the same molecule, the growth at 10 µM (A549) was 81.7%, the inhibition at 50 µM [8] was 63% and the inhibition of growth at 10 µM (MCF7 [9]) was 32%. The growth at 10 µM (MDA-MB-435) was 42.1%, the inhibition of growth at 10 µM (MDA-MB-231 [10]) was 37% and the Activity (MCF7 [11]) was “Active”. It also gave a growth at 10 µM (RPMI-8226) of 90.3%, an inhibition at 25 µM [12] of 42% and an inhibition of growth at 50 µM (MCF7 [13]) of 70%. For the same molecule, the growth at 10 µM (UACC-257) was 73.9%, the growth at 10 µM (EKVX) was 88.3% and the inhibition of growth at 25 µM (MCF7 [14]) was 38%. The inhibition of growth at 50 µM (MCF7 [15]) was 54%, the growth at 10 µM (SNB-75) was 46.5% and the growth at 10 µM (NCI-H226) was 65.6%. It also gave a growth at 10 µM (CAKI-1) of 58.9%, a growth at 10 µM (SR) of 31.6% and a growth at 10 µM (MOLT-4) of 107%. The growth at 10 µM (ACHN) was 92.4%, the inhibition of growth at 25 µM (MDA-MB-231 [16]) was 48% and the inhibition of growth at 25 µM (MCF7 [17]) was 41%. It also gave an inhibition of growth at 25 µM (MDA-MB-231 [18]) of 35%, a growth at 10 µM (K562) of 76.8% and an inhibition at 24 h, 10 µM [19] of 14%. The growth at 10 µM (UO-31) was 26.4%, the growth at 10 µM (HOP-62) was 67.5% and the Activity (MCF7 [20]) was “Active”. It also gave a growth at 10 µM (MCF7 [21]) of 41.5%, a growth at 10 µM (LOX IMVI) of 86.5% and a growth at 10 µM (HCT-15) of 69.5%. For the same molecule, the inhibition at 72 h, 10 µM [22] was 11%, the growth at 10 µM (MDA-MB-231 [23]) was 82.2% and the inhibition of growth at 50 µM (MDA-MB-231 [24]) was 74%. The growth at 10 µM (HCT-116) was 84.3%, the inhibition (MCF7 [25]) was “Dose-Dependent Effect” and the growth at 10 µM (PC-3) was 75.8%. For the same molecule, the Activity (MCF7 [26]) was “Active”, the growth at 10 µM (T47D) was 70.3% and the growth at 10 µM (SF-295) was 91.1%.
